From patent publication EP0326922A2 (priority 1988, dated 1989) come the findings set out here.

For one series, the system named is Candida albicans. Kind of series: MIC (MHK) determination. The series is classed as cell-based. The following applies: read-out: MHK-Werte.
For the next series, the system named is Botrytis cinerea 57. Kind of series: MIC (MHK) determination. Type of series: cell-based. The note with it: read-out: MHK-Werte.
The test system of the next series is Fusarium culmorum 100. The series is described as follows: MIC (MHK) determination. The note with it: read-out: MHK-Werte. Type of series: cell-based.
Another series has as its system Botrytis cinerea 16. Kind of series: MIC (MHK) determination. The note with it: read-out: MHK-Werte. The series is classed as cell-based.
The next series relates to Alternaria solani 5. Kind of series: MIC (MHK) determination. The series is classed as cell-based. The note with it: read-out: MHK-Werte.
A further series relates to Staph. aureus 209 P. The series is described as follows: MIC (MHK) determination. The series is classed as cell-based. The note with it: Staphylococcus aureus, read-out: MHK-Werte.
The test system of a further series is Pyricularia oryzae 154. Kind of series: microbe, parasite or virus in culture. The series is classed as cell-based. The following applies: Pyricularia oryzae, 154, read-out: MHK-Werte.
Series [1] deals with Penicillium digitatum 135. Kind of series: MIC (MHK) determination. Type of series: cell-based. The note with it: read-out: MHK-Werte.
Another series deals with Hefe 5060. Kind of series: MIC (MHK) determination. Type of series: cell-based. The following applies: read-out: MHK-Werte.
A further series concerns Aspergillus niger. The series is described as follows: MIC (MHK) determination. The note with it: read-out: MHK-Werte. Type of series: cell-based.
A further series relates to Cladosporuim resinae. Kind of series: MIC (MHK) determination. Type of series: cell-based. The note with it: read-out: MHK-Werte.
Series [2] has as its system Trichophyton mentagrophytes. The series is described as follows: MIC (MHK) determination. The series is classed as cell-based. The following applies: read-out: MHK-Werte.
Another series has as its system Cercospora beticola 71. Kind of series: MIC (MHK) determination. Type of series: cell-based. The note with it: read-out: MHK-Werte.
The conditions of series [3]: solvents in which the substance dissolves, in words.
The next series has as its system Saccharomyces cerevisiae. The series is described as follows: MIC (MHK) determination. The series is classed as cell-based. The note with it: read-out: MHK-Werte.
The test system of the next series is E. coli 9632. The series is described as follows: MIC (MHK) determination. Type of series: cell-based. The note with it: Escherichia coli, read-out: MHK-Werte.
For another series, the system named is Botrytis cinerea 47. Kind of series: MIC (MHK) determination. The note with it: read-out: MHK-Werte. The series is classed as cell-based.

Values after ≈ are worked out from the molar mass of the structure shown. A value given as a limit tells only on which side of the number the result lay.

Take `COC(C/C=C\C=C\CC/C=C/CC(C)/C=C/C(=C/C(=O)O)CC(=O)O)/C(C)=C\C=C(/C)C(=O)O` (stereo not drawn) [Isobongkrekinsäure, 3-Carboxymethyl-17-methoxy-6,18,21-trimethyldocosa-2E,4E,8E,12E,14Z,18Z,20E-hepta-en-1,22-disäure]: the MIC was above 125 µg/mL with Candida albicans; 31.2 µg/mL (≈ 64.1 µM) in the series with Botrytis cinerea 57; 7.8 µg/mL (≈ 16 µM) with Fusarium culmorum 100; 62.5 µg/mL (≈ 128 µM) with Botrytis cinerea 16; 62.5 µg/mL (≈ 128 µM) in the series on Alternaria solani 5; 125 µg/mL (≈ 257 µM) in the series on Staph. aureus 209 P. The MIC is 31.2 µg/mL (≈ 64.1 µM) in the series with Pyricularia oryzae 154; 62.5 µg/mL (≈ 128 µM) in [1]; above 125 µg/mL with Hefe 5060; 62.5 µg/mL (≈ 128 µM) with Aspergillus niger; 250 µg/mL (≈ 514 µM) with Cladosporuim resinae; 125 µg/mL (≈ 257 µM) in series [2]. Besides, the MIC with Cercospora beticola 71 is 15.6 µg/mL (≈ 32.1 µM); in the series with Saccharomyces cerevisiae, above 125 µg/mL; in the series on E. coli 9632, above 125 µg/mL; with Botrytis cinerea 47, 15.6 µg/mL (≈ 32.1 µM). Also, the Löslichkeit entry in series [3] is reported as “Wäßriges Alkali, schwerlöslich in MeOH und Wasser”.
On to `COC(=O)/C=C(/C=C/C(C)C/C=C/CC/C=C/C=C\CC(OC)/C(C)=C\C=C(/C)C(=O)OC)CC(=O)OC` (stereo not drawn) [Isobongkrekinsäure-trimethylester], for which the Löslichkeit result in series [3] was “CHCl3, CH2Cl2,MeOH, Aceton, Äthylacetat und Petroläther”.
